The values that follow come from US10351718B2, “Optical filter and imaging device” (AGC Inc., priority 2015, dated 2019).

The nature of the data set: Absorption characteristic of the dye in dichloromethane. The data set is classed as physicochemical. The conditions noted are these: for λ80 (wavelength with 80% transmittance on shorter wavelength side of λmax) / λmax − λ80: dichloromethane, transmittance at λmax set to 10%; for εA (maximum absorption coefficient in a wavelength of 430 to 550 nm) / εB (maximum absorption coefficient in a wavelength of 670 to 730 nm) / εB/εA / λmax (maximum absorption wavelength): dissolved in dichloromethane. The procedure:
The dyes obtained above were each dissolved in dichloromethane, and using an ultraviolet-visible spectrophotometer (made by Hitachi High Technologies Co., Ltd., U-4100 type), each spectral transmittance curve was measured, from which a maximum absorption wavelength λmax, a wavelength λ80 with which the transmittance becomes 80% on a shorter wavelength side than the maximum absorption wavelength with the transmittance at the maximum absorption wavelength set to 10%, the difference between the maximum absorption wavelength λmax and the wavelength λ80 (λmax−λ80), a maximum absorption coefficient εA in a wavelength of 430 to 550 nm, a maximum absorption coefficient εB in a wavelength of 670 to 730 nm, and a ratio of these (εB/εA) were calculated. Note that measurement of the dye (A9) was not performed because its solubility was low. Further, for each of the following spectral transmittance curves, an ultraviolet-visible spectrophotometer (made by Hitachi High Technologies Co., Ltd., U-4100 type) was used.

Regarding `Cc1ccc(S(=O)(=O)Nc2cc3c(cc2C2=C([O-])C(=c4cc5c(cc4NS(=O)(=O)c4ccc(C)cc4)=[N+](C(C)C)C(C)C5(C)C)C2=O)C(C)(C)C(C)N3C(C)C)cc1` (stereo not drawn) [Dye A1-12], the “λ80 (wavelength with 80% transmittance on shorter wavelength side of λmax)” value stood at 648 nm, the “λmax − λ80” value amounted to 52 nm, the “εA (maximum absorption coefficient in a wavelength of 430 to 550 nm)” value worked out at 0.0116 and the “εB (maximum absorption coefficient in a wavelength of 670 to 730 nm)” value was 1. Besides, the εB/εA turned out to be 86.2 and the “λmax (maximum absorption wavelength)” value was found to be 700 nm.

As to `Cc1ccccc1S(=O)(=O)Nc1cc2c(cc1C1=C([O-])C(=c3cc4c(cc3NS(=O)(=O)c3ccccc3C)=[N+](C(C)C)C(C)C4(C)C)C1=O)C(C)(C)C(C)N2C(C)C` (stereo not drawn) [Dye A1-18], the “λ80 (wavelength with 80% transmittance on shorter wavelength side of λmax)” value is given as 649 nm, the “λmax − λ80” value was 50 nm, the “εA (maximum absorption coefficient in a wavelength of 430 to 550 nm)” value is 0.0110 and the “εB (maximum absorption coefficient in a wavelength of 670 to 730 nm)” value amounted to 1. Also, the εB/εA is 90.9 and the “λmax (maximum absorption wavelength)” value is listed as 699 nm.

Take `CC(C)N1c2cc(N3S(=O)(=O)C(F)(F)C(F)(F)S3(=O)=O)c(C3=C([O-])C(=c4cc5c(cc4N4S(=O)(=O)C(F)(F)C(F)(F)S4(=O)=O)=[N+](C(C)C)C(C)C5(C)C)C3=O)cc2C(C)(C)C1C` (stereo not drawn) [Dye A1-20]: the “λ80 (wavelength with 80% transmittance on shorter wavelength side of λmax)” value was determined as 651 nm, the “λmax − λ80” value was 52 nm, the “εA (maximum absorption coefficient in a wavelength of 430 to 550 nm)” value is 0.0100 and the “εB (maximum absorption coefficient in a wavelength of 670 to 730 nm)” value came out at 1. The εB/εA came to 100 and the “λmax (maximum absorption wavelength)” value worked out at 703 nm.

Turning to `CC1N(C)c2cc(NS(=O)(=O)C(F)(F)C(F)(F)C(F)(F)C(F)(F)F)c(C3=C([O-])C(=c4cc5c(cc4NS(=O)(=O)C(F)(F)C(F)(F)C(F)(F)C(F)(F)F)=[N+](C)C(C)C5(C)C)C3=O)cc2C1(C)C` (stereo not drawn) [Dye A1-3], the “λ80 (wavelength with 80% transmittance on shorter wavelength side of λmax)” value was 637 nm, the “λmax − λ80” value is on record as 61 nm, the “εA (maximum absorption coefficient in a wavelength of 430 to 550 nm)” value was 0.0065 and the “εB (maximum absorption coefficient in a wavelength of 670 to 730 nm)” value was determined as 1. Moreover, the εB/εA is given as 154 and the “λmax (maximum absorption wavelength)” value is 698 nm.

In the case of `CC1N(C)c2cc(NS(=O)(=O)c3ccccc3C(F)(F)F)c(C3=C([O-])C(=c4cc5c(cc4NS(=O)(=O)c4ccccc4C(F)(F)F)=[N+](C)C(C)C5(C)C)C3=O)cc2C1(C)C` (stereo not drawn) [Dye A1-4], the “λ80 (wavelength with 80% transmittance on shorter wavelength side of λmax)” value was 633 nm, the “λmax − λ80” value is given as 62 nm, the “εA (maximum absorption coefficient in a wavelength of 430 to 550 nm)” value worked out at 0.0104 and the “εB (maximum absorption coefficient in a wavelength of 670 to 730 nm)” value stood at 1. Also, the εB/εA came to 96.2 and the “λmax (maximum absorption wavelength)” value was 695 nm.

With `CCCCCc1ccc(S(=O)(=O)Nc2cc3c(cc2C2=C([O-])C(=c4cc5c(cc4NS(=O)(=O)c4ccc(CCCCC)cc4)=[N+](C(C)C)C(C)C5(C)C)C2=O)C(C)(C)C(C)N3C(C)C)cc1` (stereo not drawn) [Dye A1-19], the “λ80 (wavelength with 80% transmittance on shorter wavelength side of λmax)” value is listed as 648 nm, the “λmax − λ80” value is listed as 51 nm, the “εA (maximum absorption coefficient in a wavelength of 430 to 550 nm)” value came out at 0.0126 and the “εB (maximum absorption coefficient in a wavelength of 670 to 730 nm)” value amounted to 1. Moreover, the εB/εA turned out to be 79.4 and the “λmax (maximum absorption wavelength)” value turned out to be 699 nm.

`CCCc1ccc(S(=O)(=O)Nc2cc3c(cc2C2=C([O-])C(=c4cc5c(cc4NS(=O)(=O)c4ccc(CCC)cc4)=[N+](C)C(C)C5(C)C)C2=O)C(C)(C)C(C)N3C)cc1` (stereo not drawn) [Dye A1-6]: the “λ80 (wavelength with 80% transmittance on shorter wavelength side of λmax)” value is 633 nm, the “λmax − λ80” value was 60 nm, the “εA (maximum absorption coefficient in a wavelength of 430 to 550 nm)” value came out at 0.0139 and the “εB (maximum absorption coefficient in a wavelength of 670 to 730 nm)” value is listed as 1. Further, the εB/εA came to 71.9 and the “λmax (maximum absorption wavelength)” value came to 693 nm.

As for `CC(C)N1c2cc(NS(=O)(=O)C(F)(F)C(F)(F)C(F)(F)C(F)(F)F)c(C3=C([O-])C(=c4cc5c(cc4NS(=O)(=O)C(F)(F)C(F)(F)C(F)(F)C(F)(F)F)=[N+](C(C)C)C(C)C5(C)C)C3=O)cc2C(C)(C)C1C` (stereo not drawn) [Dye A1-17], the “λ80 (wavelength with 80% transmittance on shorter wavelength side of λmax)” value is listed as 653 nm, the “λmax − λ80” value is on record as 52 nm, the “εA (maximum absorption coefficient in a wavelength of 430 to 550 nm)” value turned out to be 0.0081 and the “εB (maximum absorption coefficient in a wavelength of 670 to 730 nm)” value is on record as 1. The εB/εA stood at 123 and the “λmax (maximum absorption wavelength)” value is given as 705 nm.

In the case of `CCC(C)(C)N1c2cc(NS(=O)(=O)C(F)(F)C(F)(F)C(F)(F)C(F)(F)F)c(C3=C([O-])C(=c4cc5c(cc4NS(=O)(=O)C(F)(F)C(F)(F)C(F)(F)C(F)(F)F)=[N+](C(C)(C)CC)C(C)C5(C)C)C3=O)cc2C(C)(C)C1C` (stereo not drawn) [Dye A1-23], the “λ80 (wavelength with 80% transmittance on shorter wavelength side of λmax)” value worked out at 663 nm, the “λmax − λ80” value is on record as 50 nm, the “εA (maximum absorption coefficient in a wavelength of 430 to 550 nm)” value is listed as 0.0124 and the “εB (maximum absorption coefficient in a wavelength of 670 to 730 nm)” value is on record as 1. For the same compound, the εB/εA is listed as 80.6 and the “λmax (maximum absorption wavelength)” value is given as 713 nm.

On to `CCC(C)(C)N1c2cc(NS(=O)(=O)C(F)(F)F)c(C3=C([O-])C(=c4cc5c(cc4NS(=O)(=O)C(F)(F)F)=[N+](C(C)(C)CC)C(C)C5(C)C)C3=O)cc2C(C)(C)C1C` (stereo not drawn) [Dye A1-22], for which the “λ80 (wavelength with 80% transmittance on shorter wavelength side of λmax)” value is on record as 660 nm, the “λmax − λ80” value was 51 nm, the “εA (maximum absorption coefficient in a wavelength of 430 to 550 nm)” value was determined as 0.0122 and the “εB (maximum absorption coefficient in a wavelength of 670 to 730 nm)” value was determined as 1. The εB/εA is given as 82.0 and the “λmax (maximum absorption wavelength)” value is reported as 711 nm.

For `CCCCCCCCS(=O)(=O)Nc1cc2c(cc1C1=C([O-])C(=c3cc4c(cc3NS(=O)(=O)CCCCCCCC)=[N+](C(C)C)C(C)(C(C)C)C4(C)C)C1=O)C(C)(C)C(C)(C(C)C)N2C(C)C` (stereo not drawn) [Dye A1-26], the “λ80 (wavelength with 80% transmittance on shorter wavelength side of λmax)” value is 654 nm, the “λmax − λ80” value is recorded as 53 nm, the “εA (maximum absorption coefficient in a wavelength of 430 to 550 nm)” value was 0.0140 and the “εB (maximum absorption coefficient in a wavelength of 670 to 730 nm)” value is 1. Moreover, the εB/εA amounted to 71.6 and the “λmax (maximum absorption wavelength)” value was 707 nm.

With `CCCCCCCCS(=O)(=O)Nc1cc2c(cc1C1=C([O-])C(=c3cc4c(cc3NS(=O)(=O)CCCCCCCC)=[N+](C(C)C)C(C)(CC)C4(C)C)C1=O)C(C)(C)C(C)(CC)N2C(C)C` (stereo not drawn) [Dye A1-25], the “λ80 (wavelength with 80% transmittance on shorter wavelength side of λmax)” value came to 653 nm, the “λmax − λ80” value came to 51 nm, the “εA (maximum absorption coefficient in a wavelength of 430 to 550 nm)” value was 0.0130 and the “εB (maximum absorption coefficient in a wavelength of 670 to 730 nm)” value was found to be 1. Further, the εB/εA is given as 77.6 and the “λmax (maximum absorption wavelength)” value came to 704 nm.

`CCCS(=O)(=O)Nc1cc2c(cc1C1=C([O-])C(=c3cc4c(cc3NS(=O)(=O)CCC)=[N+](C(C)C)C(C)C4(C)C)C1=O)C(C)(C)C(C)N2C(C)C` (stereo not drawn) [Dye A1-13]: the “λ80 (wavelength with 80% transmittance on shorter wavelength side of λmax)” value was 645 nm, the “λmax − λ80” value is 53 nm, the “εA (maximum absorption coefficient in a wavelength of 430 to 550 nm)” value is 0.0113 and the “εB (maximum absorption coefficient in a wavelength of 670 to 730 nm)” value is 1. The εB/εA is 88.5 and the “λmax (maximum absorption wavelength)” value came out at 698 nm.
